Legend:
[1] = target: Sodium-dependent dopamine transporter (Macaca fascicularis, UniProt Q9GJT6); assay: Inhibition of [3H]WIN-35428 binding to dopamine transporter (DAT) of cynomolgus monkey caudate-putamen; type: tissue-based
[2] = target: Sodium-dependent serotonin transporter; assay: Inhibition of [3H]citalopram binding to serotonin transporter (SERT) of cynomolgus monkey caudate-putamen; type: tissue-based

Sequence of Sodium-dependent dopamine transporter (Q9GJT6 whole entry): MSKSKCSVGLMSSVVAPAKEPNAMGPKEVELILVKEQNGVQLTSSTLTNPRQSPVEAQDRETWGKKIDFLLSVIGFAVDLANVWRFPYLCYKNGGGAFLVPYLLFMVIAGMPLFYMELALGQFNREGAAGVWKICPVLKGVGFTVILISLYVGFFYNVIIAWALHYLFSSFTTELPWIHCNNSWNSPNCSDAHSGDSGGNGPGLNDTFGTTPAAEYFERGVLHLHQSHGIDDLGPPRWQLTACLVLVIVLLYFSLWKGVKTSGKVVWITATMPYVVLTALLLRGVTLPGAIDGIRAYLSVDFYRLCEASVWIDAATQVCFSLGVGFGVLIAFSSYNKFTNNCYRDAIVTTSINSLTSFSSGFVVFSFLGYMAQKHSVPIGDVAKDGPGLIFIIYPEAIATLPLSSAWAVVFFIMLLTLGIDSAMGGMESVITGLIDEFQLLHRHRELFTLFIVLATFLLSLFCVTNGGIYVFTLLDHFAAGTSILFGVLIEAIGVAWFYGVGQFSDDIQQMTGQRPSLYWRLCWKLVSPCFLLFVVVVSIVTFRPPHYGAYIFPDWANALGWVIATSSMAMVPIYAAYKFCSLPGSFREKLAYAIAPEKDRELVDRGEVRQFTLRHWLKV

SMILES	IC50 [1]	IC50 [2]
COC(=O)C1C2CCC(CC1c1ccc(Cl)c(Cl)c1)O2 (racemic; form 2)	3.1 nM	–
COC(=O)C1C2CCC(CC1c1ccc(Cl)c(Cl)c1)N2 (stereo not given)	0.7 nM	1.24 nM
COC(=O)C1C2CCC(C2)CC1c1ccc(Cl)c(Cl)c1 (racemic)	14.3 nM	180 nM
COC(=O)C1=C(c2ccc(Cl)c(Cl)c2)CC2CCC1C2 (racemic)	7.1 nM	5160 nM
COC(=O)C1C(c2ccc(Cl)c(Cl)c2)CC2CCC1N2C (stereo not given)	1.1 nM	27.6 nM
COC(=O)C1=C(c2ccc(Cl)c(Cl)c2)CC2CCC1N2C (stereo not given)	1.2 nM	867 nM
COC(=O)C1C2CCC(CC1c1ccc(Cl)c(Cl)c1)O2 (racemic; form 1)	3.4 nM	–
COC(=O)C1=C(c2ccc(Cl)c(Cl)c2)CC2CCC1O2 (stereo in doubt; 5b (R))	4.2 nM	2120 nM
COC(=O)C1=C(c2ccc(Cl)c(Cl)c2)CC2CCC1O2 (stereo in doubt; 5b (R/S))	12.8 nM	1960 nM
COC(=O)C1C2CCC(C2)CC1c1ccc(Cl)c(Cl)c1 (stereo in doubt; 6a (R/S))	9.6 nM	33.4 nM
COC(=O)C1C2CCC(CC1c1ccc(Cl)c(Cl)c1)O2 (stereo in doubt; 7b (R))	2.3 nM	30.3 nM
